Experimental data as given in the NIST ThermoML archive (doi:10.1016/j.jct.2012.12.007).
Numbers after ± are expanded uncertainties.

Settings: 101.33 kPa, Liquid; for speed of sound: Sing-around technique in a fixed-path interferometer; for mass density: Vibrating tube method

SMILES | speed of sound (293.15 K) [m/s] | mass density (293.15 K) [kg/m3] | speed of sound (298.15 K) [m/s] | mass density (298.15 K) [kg/m3] | speed of sound (303.15 K) [m/s] | mass density (303.15 K) [kg/m3]
CCCCO [butan-1-ol] | 1256.2 ± 0.7 | 809.89 ± 0.12 | 1239.6 ± 0.7 | 806.47 ± 0.12 | 1223.8 ± 0.7 | 802.22 ± 0.12
CCCCCCCCCCO [decan-1-ol] | 1397.1 ± 1.2 | 829.95 ± 0.24 | 1380.3 ± 1.2 | 826.95 ± 0.24 | 1364.1 ± 1.2 | 823.15 ± 0.24
CCOCCOCCOCC [diethylene glycol diethyl ether] | 1259.4 ± 1.2 | 906.73 ± 0.23 | 1239.9 ± 1.2 | 902.88 ± 0.23 | 1221.8 ± 1.2 | 897.22 ± 0.23
CO [methanol] | 1118 ± 1 | 791.55 ± 0.12 | 1101.4 ± 0.6 | 787.2 ± 0.12 | 1086.6 ± 0.6 | 782.44 ± 0.12
